Assays:
PDGFRβ(h) = PDGFRβ(h) (Homo sapiens, UniProt P09619); test: Kinase inhibition; format: biochemical
Excerpt: (§1) […]. In vitro tyrosine kinase inhibition activities can be measured via commercial resources. Some of these tests can also be contracted with Eurofin or Reaction Biology for screening.
(§2) For the kinase inhibition tests, receptor tyrosine kinases are selected from FGFR1(h), FGFR2(h), FGFR3(h), Flt1(h) (VEGFr1), Flt4(h) (VEGFr3), KDR(h) (VEGFr2), Aurora-B, PDGFRα(h) and PDGFRβ(h). […] […].

PDGFRα(h) = PDGFRα(h) (Homo sapiens, UniProt P16234); test: Kinase inhibition; format: biochemical
Chain of PDGFRα(h) (P16234 24-1089): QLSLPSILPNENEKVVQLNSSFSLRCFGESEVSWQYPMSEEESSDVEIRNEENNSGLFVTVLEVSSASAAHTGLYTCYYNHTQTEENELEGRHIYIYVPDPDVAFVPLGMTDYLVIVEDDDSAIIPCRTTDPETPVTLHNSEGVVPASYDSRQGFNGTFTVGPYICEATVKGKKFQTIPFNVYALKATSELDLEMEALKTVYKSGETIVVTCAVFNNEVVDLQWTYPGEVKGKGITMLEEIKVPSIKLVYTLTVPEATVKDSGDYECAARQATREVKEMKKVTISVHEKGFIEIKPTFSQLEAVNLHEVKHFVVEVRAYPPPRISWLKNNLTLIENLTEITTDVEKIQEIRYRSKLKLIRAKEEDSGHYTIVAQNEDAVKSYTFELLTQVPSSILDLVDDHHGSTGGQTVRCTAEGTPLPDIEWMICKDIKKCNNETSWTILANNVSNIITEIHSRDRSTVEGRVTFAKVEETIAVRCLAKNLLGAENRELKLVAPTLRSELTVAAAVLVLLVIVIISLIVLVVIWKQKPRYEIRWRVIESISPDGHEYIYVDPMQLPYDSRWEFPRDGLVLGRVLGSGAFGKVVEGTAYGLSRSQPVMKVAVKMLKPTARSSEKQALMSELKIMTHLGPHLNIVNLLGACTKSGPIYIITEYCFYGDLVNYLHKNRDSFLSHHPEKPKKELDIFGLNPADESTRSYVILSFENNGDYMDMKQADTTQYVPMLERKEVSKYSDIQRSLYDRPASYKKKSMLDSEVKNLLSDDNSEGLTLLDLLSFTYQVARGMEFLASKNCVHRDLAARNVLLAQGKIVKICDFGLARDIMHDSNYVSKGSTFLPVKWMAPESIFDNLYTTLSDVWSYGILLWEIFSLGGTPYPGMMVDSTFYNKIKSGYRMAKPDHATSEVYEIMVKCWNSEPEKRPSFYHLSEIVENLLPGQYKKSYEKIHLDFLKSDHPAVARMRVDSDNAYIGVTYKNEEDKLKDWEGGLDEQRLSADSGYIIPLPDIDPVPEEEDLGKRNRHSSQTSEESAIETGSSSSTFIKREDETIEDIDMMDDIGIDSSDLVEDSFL
Excerpt: as §1, §2

Flt4(h) (VEGFr3) = Flt4(h) (VEGFr3) (Homo sapiens, UniProt P35916); test: Kinase inhibition; format: biochemical
Excerpt: (§3) In vitro tyrosine kinase inhibition activities can be measured via commercial resources. Some of these tests can also be contracted with Eurofin or Reaction Biology for screening.
(§4) For the kinase inhibition tests, receptor tyrosine kinases are selected from FGFR1(h), FGFR2(h), FGFR3(h), Flt1(h) (VEGFr1), Flt4(h) (VEGFr3), KDR(h) (VEGFr2), Aurora-B, PDGFRα(h) and PDGFRβ(h).

Flt1(h) (VEGFr1) = Flt1(h) (VEGFr1) (Homo sapiens, UniProt P17948); test: Kinase inhibition; format: biochemical
Chain of Flt1(h) (VEGFr1) (P17948 27-1338): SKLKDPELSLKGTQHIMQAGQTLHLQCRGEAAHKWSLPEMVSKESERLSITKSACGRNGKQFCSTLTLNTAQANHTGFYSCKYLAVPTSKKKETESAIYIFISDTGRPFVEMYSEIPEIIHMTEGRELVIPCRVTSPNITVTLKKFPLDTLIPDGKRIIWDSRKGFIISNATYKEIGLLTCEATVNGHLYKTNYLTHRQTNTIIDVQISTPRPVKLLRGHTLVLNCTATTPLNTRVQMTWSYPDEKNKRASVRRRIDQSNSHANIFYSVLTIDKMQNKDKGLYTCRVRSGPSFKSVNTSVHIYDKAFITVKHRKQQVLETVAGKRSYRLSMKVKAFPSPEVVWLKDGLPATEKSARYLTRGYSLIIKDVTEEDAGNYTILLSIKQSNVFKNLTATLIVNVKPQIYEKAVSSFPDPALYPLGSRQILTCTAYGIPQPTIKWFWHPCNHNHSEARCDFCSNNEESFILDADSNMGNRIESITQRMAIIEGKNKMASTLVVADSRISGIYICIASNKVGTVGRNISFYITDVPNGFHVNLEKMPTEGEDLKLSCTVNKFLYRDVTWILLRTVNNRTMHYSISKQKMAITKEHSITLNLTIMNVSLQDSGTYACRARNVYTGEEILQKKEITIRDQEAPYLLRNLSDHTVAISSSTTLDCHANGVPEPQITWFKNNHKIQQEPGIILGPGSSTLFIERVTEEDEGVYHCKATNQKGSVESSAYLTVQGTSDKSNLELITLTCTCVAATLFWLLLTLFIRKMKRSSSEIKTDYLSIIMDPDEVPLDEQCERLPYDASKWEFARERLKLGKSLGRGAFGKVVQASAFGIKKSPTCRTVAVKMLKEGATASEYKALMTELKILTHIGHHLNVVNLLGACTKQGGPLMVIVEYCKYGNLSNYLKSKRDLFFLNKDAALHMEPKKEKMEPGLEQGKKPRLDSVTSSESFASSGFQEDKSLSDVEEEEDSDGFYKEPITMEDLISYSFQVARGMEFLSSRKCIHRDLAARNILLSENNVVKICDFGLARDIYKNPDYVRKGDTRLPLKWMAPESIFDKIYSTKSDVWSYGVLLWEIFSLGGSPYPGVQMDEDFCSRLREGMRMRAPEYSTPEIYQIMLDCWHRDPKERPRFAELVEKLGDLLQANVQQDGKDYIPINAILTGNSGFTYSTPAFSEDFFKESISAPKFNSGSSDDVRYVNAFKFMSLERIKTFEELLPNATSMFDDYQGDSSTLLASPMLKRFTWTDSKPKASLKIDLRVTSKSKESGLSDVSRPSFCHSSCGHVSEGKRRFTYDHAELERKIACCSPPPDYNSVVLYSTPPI
Excerpt: as §3, §4

Aurora-B = Aurora-B (Homo sapiens, UniProt Q96GD4); test: Kinase inhibition; format: biochemical
Excerpt: as §3, §4

FGFR3(h) = FGFR3(h) (Homo sapiens, UniProt P22607); test: Kinase inhibition; format: biochemical
Excerpt: as §3, §4

FGFR1(h) = FGFR1(h) (Homo sapiens, UniProt P11362); test: Kinase inhibition; format: biochemical
Chain of FGFR1(h) (P11362 22-822): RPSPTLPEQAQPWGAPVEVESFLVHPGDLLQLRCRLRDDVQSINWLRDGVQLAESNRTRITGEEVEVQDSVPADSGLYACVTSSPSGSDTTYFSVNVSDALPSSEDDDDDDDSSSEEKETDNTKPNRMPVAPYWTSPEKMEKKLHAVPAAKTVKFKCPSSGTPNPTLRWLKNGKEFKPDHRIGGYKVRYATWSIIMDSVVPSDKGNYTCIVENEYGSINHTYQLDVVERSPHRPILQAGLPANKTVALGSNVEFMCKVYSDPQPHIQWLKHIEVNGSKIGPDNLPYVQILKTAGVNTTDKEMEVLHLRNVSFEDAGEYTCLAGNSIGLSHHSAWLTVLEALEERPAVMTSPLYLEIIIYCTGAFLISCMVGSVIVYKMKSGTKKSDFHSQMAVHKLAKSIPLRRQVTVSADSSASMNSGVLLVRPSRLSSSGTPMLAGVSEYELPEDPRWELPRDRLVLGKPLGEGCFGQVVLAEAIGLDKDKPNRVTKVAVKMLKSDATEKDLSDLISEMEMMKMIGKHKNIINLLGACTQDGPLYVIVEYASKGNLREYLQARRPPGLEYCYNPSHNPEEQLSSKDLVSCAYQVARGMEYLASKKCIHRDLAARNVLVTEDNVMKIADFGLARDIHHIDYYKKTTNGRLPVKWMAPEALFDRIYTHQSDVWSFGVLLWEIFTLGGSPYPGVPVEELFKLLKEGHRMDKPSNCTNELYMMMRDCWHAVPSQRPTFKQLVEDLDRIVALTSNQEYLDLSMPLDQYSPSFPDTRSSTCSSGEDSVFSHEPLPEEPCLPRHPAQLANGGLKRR
Excerpt: as §3, §4

FGFR2(h) = FGFR2(h) (Homo sapiens, UniProt P21802); test: Kinase inhibition; format: biochemical
Chain of FGFR2(h) (P21802 22-821): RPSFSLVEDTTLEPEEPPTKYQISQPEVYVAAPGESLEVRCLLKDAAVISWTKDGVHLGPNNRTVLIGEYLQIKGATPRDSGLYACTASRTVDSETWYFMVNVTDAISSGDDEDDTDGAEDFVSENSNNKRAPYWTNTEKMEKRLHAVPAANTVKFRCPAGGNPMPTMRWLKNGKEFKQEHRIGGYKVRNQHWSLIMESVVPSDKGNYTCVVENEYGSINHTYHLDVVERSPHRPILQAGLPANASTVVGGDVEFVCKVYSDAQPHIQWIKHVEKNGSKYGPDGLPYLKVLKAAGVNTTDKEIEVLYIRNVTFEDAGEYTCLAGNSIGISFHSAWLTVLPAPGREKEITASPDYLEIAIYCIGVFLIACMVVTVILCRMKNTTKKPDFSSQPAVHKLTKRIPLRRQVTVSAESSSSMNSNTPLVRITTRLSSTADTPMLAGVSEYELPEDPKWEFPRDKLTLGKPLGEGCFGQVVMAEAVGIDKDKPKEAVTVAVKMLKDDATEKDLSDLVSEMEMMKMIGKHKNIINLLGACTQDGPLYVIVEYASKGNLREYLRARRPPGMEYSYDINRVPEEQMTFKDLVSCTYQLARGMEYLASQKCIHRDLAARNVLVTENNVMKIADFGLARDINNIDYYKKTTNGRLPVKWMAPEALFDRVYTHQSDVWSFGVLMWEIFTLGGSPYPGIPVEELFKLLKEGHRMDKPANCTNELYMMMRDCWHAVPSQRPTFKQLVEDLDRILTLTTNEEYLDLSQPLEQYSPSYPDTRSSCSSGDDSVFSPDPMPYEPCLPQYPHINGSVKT
Excerpt: as §3, §4

KDR(h) (VEGFr2) = KDR(h) (VEGFr2) (Homo sapiens, UniProt P35968); test: Kinase inhibition; format: biochemical
Excerpt: as §1
For the kinase inhibition tests, receptor tyrosine kinases are selected from FGFR1(h), FGFR2(h), FGFR3(h), Flt1(h) (VEGFr1), Flt4(h) (VEGFr3), KDR(h) (VEGFr2), Aurora-B, PDGFRα(h) and PDGFRβ(h). […]. […]

SKBR3 = test: In vitro MTT (proliferation) assay; format: cell-based; details: Homo sapiens, SK-BR-3, Breast
[1] = test system: murine colorectal CT26 cell line; test: Murine colorectal CT26 model, combination with anti-mouse PD-1 antibody; format: in vivo, mice; details: for Mean tumor volume D0: D0 (first drug administration time, baseline); for Mean tumor volume D0 / Mean tumor volume D17 / T/C D17: CT26 mice
786-O = test: In vitro MTT (proliferation) assay; format: cell-based; details: Homo sapiens, 786-0, Kidney
Molt-4 = test: In vitro MTT (proliferation) assay; format: cell-based; details: Homo sapiens, Blood
SCLC NCI-H1436 = test: In vivo xenograft model; design: species or system nude mouse; details: oral daily 14-21 days, tumor weight vs control
Method: (§5) Animal antitumor activity in vivo xenograft models with various tumor cell lines (SCLC NCI-H1436, NSCLC 95-D, ovarian SKVO3, renal 786-O, liver Bel-7420, brain U87) were performed as follows: The well grown tumor tissues of tumor cell lines were cut into 3 mm pieces, and each nude mouse was subcutaneously inoculated with one piece into the right flank. The animals were grouped and administered at pre-designed dosing. Treatments were initiated when the tumor size reached above 100 mm^3 after 10-14 days. According to the size of tumor, the animals with oversize or undersize tumors were eliminated, and the animals were grouped with similar average tumor volume. Then the animals were orally administrated daily for continuous 14-21 days. The large diameter a (mm) and the small diameter b (mm) were measured with caliper twice a week after inoculation for 13 days. Each tumor volume was calculated by formular: TV=ab^2/2 and the relative tumor volume was calculated as: RTV=Vt/Vo, Vo represents the tumor volume on the first day of treatment; Vt represents the tumor volume on each measurement day. The animals were executed and tumors were extracted by dissection 20-30 days after inoculation. The individual body weight and tumor weight were determined and calculated. Tumor Inhibit percentage was calculated as [1−((TWt)/(TWc)×100%, where TWt represents mean tumor weight of a treated group on the last day during the experiment, TWc represents mean tumor weight of the control group on the last day during the experiment. Experimental dosing and efficacy results are shown in FIGS. 19-24 of Drawing. The best tumor inhibition percentage ranges are >70% to 100%.

NSCLC 95-D = test: In vivo xenograft model; design: species or system nude mouse; details: 95-D xenograft, oral daily 14-21 days, tumor weight vs control
Method: as §5

brain U87 = test: In vivo xenograft model; design: species or system nude mouse; details: oral daily 14-21 days, tumor weight vs control
Method: as §5

ovarian SKVO3 = test: In vivo xenograft model; design: species or system nude mouse; details: oral daily 14-21 days, tumor weight vs control
Method: as §5

liver Bel-7420 = test: In vivo xenograft model; design: species or system nude mouse; details: Bel-7420 xenograft, oral daily 14-21 days, tumor weight vs control
Method: as §5

renal 786-O = test: In vivo xenograft model; design: species or system nude mouse; details: 786-O xenograft, oral daily 14-21 days, tumor weight vs control
Method: as §5

95-D = test: In vitro MTT (proliferation) assay; format: cell-based; details: Lung
SGC7901 = test: In vitro MTT (proliferation) assay; format: cell-based; details: Homo sapiens, SGC-7901, Stomach

Chain of PDGFRβ(h) (P09619 33-1106): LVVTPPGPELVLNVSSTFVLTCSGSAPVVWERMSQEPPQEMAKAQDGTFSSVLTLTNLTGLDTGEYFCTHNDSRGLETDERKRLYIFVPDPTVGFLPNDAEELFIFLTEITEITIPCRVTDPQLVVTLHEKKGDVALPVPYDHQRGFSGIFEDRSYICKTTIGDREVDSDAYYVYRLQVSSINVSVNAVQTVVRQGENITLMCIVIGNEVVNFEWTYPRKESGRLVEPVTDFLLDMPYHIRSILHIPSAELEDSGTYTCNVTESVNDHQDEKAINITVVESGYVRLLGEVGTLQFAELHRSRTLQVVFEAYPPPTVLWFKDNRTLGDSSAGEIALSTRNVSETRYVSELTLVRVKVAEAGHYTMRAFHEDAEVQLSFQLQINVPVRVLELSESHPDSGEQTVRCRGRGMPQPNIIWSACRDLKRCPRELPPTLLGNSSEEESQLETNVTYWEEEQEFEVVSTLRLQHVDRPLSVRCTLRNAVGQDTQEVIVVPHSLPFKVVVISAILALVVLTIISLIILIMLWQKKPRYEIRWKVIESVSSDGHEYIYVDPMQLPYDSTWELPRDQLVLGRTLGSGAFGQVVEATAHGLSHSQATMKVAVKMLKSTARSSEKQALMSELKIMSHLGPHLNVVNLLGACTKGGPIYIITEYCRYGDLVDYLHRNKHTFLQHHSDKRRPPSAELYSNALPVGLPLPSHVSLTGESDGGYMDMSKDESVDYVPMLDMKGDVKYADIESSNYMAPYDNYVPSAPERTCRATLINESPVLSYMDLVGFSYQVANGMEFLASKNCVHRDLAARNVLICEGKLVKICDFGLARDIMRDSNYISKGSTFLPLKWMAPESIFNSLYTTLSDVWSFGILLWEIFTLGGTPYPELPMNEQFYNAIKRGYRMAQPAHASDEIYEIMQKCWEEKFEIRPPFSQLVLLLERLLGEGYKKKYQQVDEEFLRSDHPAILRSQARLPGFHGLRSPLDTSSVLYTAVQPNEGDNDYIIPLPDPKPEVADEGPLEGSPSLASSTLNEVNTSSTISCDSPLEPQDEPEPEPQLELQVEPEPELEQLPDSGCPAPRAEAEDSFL

Compound COc1cc2c(Oc3ccc4[nH]c(C)cc4c3F)ccnc2cc1OCCN1CC(O)C2(CC2)C1 (stereo not drawn) [Compound A-Xln, 5-(2-(4-(4-fluoro-2-methyl-1H-indol-5-yloxy)-6-methoxyquinolin-7-yloxy)ethyl)-5-azaspiro[2.4]-heptan-7-ol] has an IC50 (PDGFRβ(h)) of 26 nM, an IC50 (PDGFRα(h)) of 160 nM and an IC50 (Flt4(h) (VEGFr3)) of 2 nM. It also gave an IC50 (Flt1(h) (VEGFr1)) of 4 nM, an IC50 (Aurora-B) of 47 nM and an IC50 (FGFR3(h)) of 6 nM. For the same compound, the IC50 (FGFR1(h)) was 4 nM, the IC50 (FGFR2(h)) was 8 nM and the IC50 (KDR(h) (VEGFr2)) was 15 nM. For the same compound, the IC50 (SKBR3) was 12200 ± 2000 nM, the “Mean tumor volume D0” value ([1]; 5 mg/kg/Qd i.g.) was 127.8 mm^3 and the “Mean tumor volume D17” value ([1]; 5 mg/kg/Qd i.g.) was 1625.3 mm^3. The “T/C D17” value ([1]; 5 mg/kg/Qd i.g.) was 72.04%, the “Mean tumor volume D0” value ([1]; 15 mg/kg/Qd i.g.) was 128.5 mm^3 and the “Mean tumor volume D17” value ([1]; 15 mg/kg/Qd i.g.) was 829.0 mm^3. The “T/C D17” value ([1]; 15 mg/kg/Qd i.g.) was 36.67%, the “Efficacy of combination treatment with an anti-PD1 antibody agent” value ([1]; CT26 model, Compound A-Xln once daily plus anti-mouse PD-1 200 μg/mouse every 3 days) was “increased efficacy” and the IC50 (786-O) was 10100 ± 3970 nM. The IC50 (Molt-4) was 5530 ± 2780 nM, the “best tumor inhibition percentage” value (SCLC NCI-H1436) was > 70% and the “best tumor inhibition percentage” value (NSCLC 95-D) was > 70%. For the same compound, the “best tumor inhibition percentage” value (brain U87) was > 70%, the “best tumor inhibition percentage” value (ovarian SKVO3) was > 70% and the “best tumor inhibition percentage” value (liver Bel-7420) was > 70%. For the same compound, the “best tumor inhibition percentage” value (renal 786-O) was > 70%, the IC50 (95-D) was 4920 ± 2260 nM and the IC50 (SGC7901) was 6640 ± 810 nM.

From patent US20230399313A1, “BIOLOGICAL ACTIVITIES OF 5-(2-(4-(4-FLUORO-2-METHYL-1H-INDOL-5-YLOXY)-6-METHOXYQUINOLIN-7-YLOXY)ETHYL)-5-AZASPIRO[2.4]-HEPTAN-7-OL CRYSTALLINE, PHOSPHORIC ACID SALT AND ITS ENANTIOMERS” (Advenchen Pharmaceuticals, LLC, priority 2022, published 2023)
